{
  "source": "patent US20100075972A1",
  "about": "“AGENT FOR TREATMENT OF MULTIPLE SCLEROSIS” (Kowa Co., Ltd., priority 2007, published 2010)",
  "key": {"[1]": {"test_system": "experimental autoimmune encephalomyelitis model", "assay": "experimental autoimmune encephalomyelitis mouse model, symptom scores", "type": "in vivo, C57BL/6 mice", "procedure": "The experimental autoimmune encephalomyelitis model is established by immunizing a mouse with myelin protein (i.e., myelin-sheath-constituting protein), thereby causing T-cell-mediated autoimmune inflammation in the central nervous system.\nSeven-week-old female C57BL/6 mice (Charles River Laboratories Japan, Inc.) were employed. A sensitizing emulsion for causing the mice to develop experimental autoimmune encephalomyelitis was prepared by mixing myelin oligodendrocyte glycoprotein (MOG) 35-55 (Alexis Biochemical) with an equiamount of complete Freund's adjuvant H37Ra (DIFCO) so that the MOG concentration was 2 mg/mL, followed by homogenization under ice cooling by means of Handy Micro Homogenizer (product of Microtec Co., Ltd.). The thus-prepared emulsion (0.1 mL) was intradermally administered to each mouse at its tail base for initial sensitization. On the same day, pertussis toxin dissolved in saline (500 ng/0.3 mL) was intravenously injected to the tail. Two days after initial sensitization, in a manner similar to that described above, pertussis toxin (500 ng/0.3 mL) was intravenously injected for booster. Drug A was orally administered (30 mg/kg) twice a day in the morning (9:00 to 11:00) and in the evening (15:30 to 17:30) from the day following the initial sensitization to 42 days after sensitization.\nThe drugs were evaluated from the condition of experimentally created autoimmune encephalomyelitis according to the following ratings:\nscore 1: limp tail or abnormal gait;\nscore 2: limp tail and abnormal gait;\nscore 3: paralysis of one limb;\nscore 4: paralysis of two or more limbs; and\nIn FIGS. 1 and 2 and Table 1, the data for each group (10 mice) are represented by average value±standard error (non-parametric Dunnett's test)."}, "[2]": {"test_system": "F4/80 mRNA", "assay": "F4/80 mRNA expression in the spinal cord of experimental autoimmune encephalomyelitis mice (real-time PCR)", "type": "in vivo", "details": "day 42, spinal cord of EAE mice of Example 1, corrected by ribosomal RNA", "excerpt": "(§1) On day 42, the spinal cord was removed from the mice employed in Example 1, and total RNA was recovered by use of ISOGEN (Nippon Gene Co., Ltd.). For comparison, similarly, the spinal cord was extirpated from unsensitized normal mice, and was employed for the below-described quantitative determination. cDNA was synthesized from the thus-obtained total RNA by use of a reverse transcriptase, and the amount of mRNA of the following gene (F4/80, TNF-α, IL-1β, or IL-6) was quantitatively determined by means of an ABI PRISM 7900HT system (Applied Biosystems) through real-time PCR employing a TaqMan probe according to the protocol of Applied Biosystems. Meanwhile, the amount of ribosomal RNA was determined, and employed for correction."}, "[3]": {"test_system": "TNF-α mRNA", "assay": "TNF-α mRNA expression in the spinal cord of experimental autoimmune encephalomyelitis mice (real-time PCR)", "type": "in vivo", "details": "day 42, spinal cord of EAE mice of Example 1, corrected by ribosomal RNA", "excerpt": "as §1"}, "[4]": {"test_system": "IL-1β mRNA", "assay": "IL-1β mRNA expression in the spinal cord of experimental autoimmune encephalomyelitis mice (real-time PCR)", "type": "in vivo", "details": "day 42, spinal cord of EAE mice of Example 1, corrected by ribosomal RNA", "excerpt": "as §1"}, "[5]": {"test_system": "IL-6 mRNA", "assay": "IL-6 mRNA expression in the spinal cord of experimental autoimmune encephalomyelitis mice (real-time PCR)", "type": "in vivo", "details": "day 42, spinal cord of EAE mice of Example 1, corrected by ribosomal RNA", "excerpt": "as §1"}, "[6]": {"test_system": "interleukin-1β production", "details": "as disclosed in WO 99/25697; cited from earlier work"}, "[7]": {"details": "oral administration of drug A 30 mg/kg twice a day"}},
  "data": [
    {"smiles": "CSc1ccc(-c2nn(Cc3ccccc3)c(=O)cc2-c2ccc(Cl)cc2)cc1", "note": "[Drug A, 2-Benzyl-5-(4-chlorophenyl)-6-[4-(methylthio)phenyl]-2H-pyridazin-3-one]", "values": [
      {"measurement": "Incidence rate, symptoms corresponding to score 2 or worse", "setting": "[1]; EAE mice, 10 per group, Drug A 30 mg/kg orally twice a day to day 42, IFN-β 10,000 IU/individual subcutaneously every other day", "value": "8/10"},
      {"measurement": "death case during the experiment (score 5)", "setting": "[1]; EAE mice, 42 days after sensitization, Drug A 30 mg/kg orally twice a day, IFN-β 10,000 IU/individual s.c. every other day", "value": "no death case was observed"},
      {"measurement": "Days required for onset, symptoms corresponding to score 2 or worse", "setting": "[1]; EAE mice, average ± standard error, Drug A 30 mg/kg orally twice a day, IFN-β 10,000 IU/individual subcutaneously every other day", "value": "22.4 ± 1.5", "unit": "days"},
      {"measurement": "experimental autoimmune encephalomyelitis scores (FIG. 1)", "setting": "[1]; [7]", "value": "ameliorated to almost the same extent as in the case of IFN-β"},
      {"measurement": "maximum score of experimental autoimmune encephalomyelitis symptoms (FIG. 2)", "setting": "[1]; [7]", "value": "tended to be reduced"},
      {"measurement": "onset of symptoms corresponding to score 2 or worse (in words)", "setting": "[1]; [7]", "value": "tended to be delayed"},
      {"measurement": "amount of expression of mRNA of F4/80 in spinal cord", "setting": "[2]", "value": "found to be reduced"},
      {"measurement": "expression of TNF-α mRNA in spinal cord", "setting": "[3]", "value": "found to be reduced"},
      {"measurement": "expression of IL-1β mRNA in spinal cord", "setting": "[4]", "value": "found to be reduced"},
      {"measurement": "expression of IL-6 mRNA in spinal cord", "setting": "[5]", "value": "found to be reduced"},
      {"measurement": "interleukin-1β production inhibitory effect", "setting": "[6]", "value": "excellent"}
    ]}
  ]
}
